Each cell line was assayed with CC(C)N(CCCNC(=O)Nc1ccc(C(C)(C)C)cc1)C[C@H]1O[C@@H](n2ccc3c(N)ncnc32)[C@H](O)[C@@H]1O + CC(=O)c1c(C)c2cnc(Nc3ccc(N4CCNCC4)cn3)nc2n(C2CCCC2)c1=O [Palbociclib] (partner 0.5 µM) (assay: relative viability (nuclei count vs DMSO), 5 days (fraction); higher = more cells survive). Conditions: first compound 0.8 µM.
Outline: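 For relative viability, nuclei counts in treated wells were divided by those in vehicle wells. Lung cancer cell lines had been pin-tool dosed in 1536-well plates the day after seeding and cultured for 5 days, then fixed and stained in one step (final 0.05% Triton X-100, 1% formaldehyde, 1 ug/ml Hoechst) and imaged at 4×. Doses were one drug alone or a fixed anchor-drug dose plus five library-drug doses (not always all listed) in √10 steps, and values are duplicate-plate medians.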
NCI-H2170 showed a relative viability of 0.372.
NCI-H3122 was tested, and the relative viability was 0.161.
With HOP-62 the relative viability was 0.356.
With HCC-44 the relative viability was 0.845.
With NCI-H522 the relative viability was 1.09.
LU99A showed a relative viability of 0.436.
With BEN the relative viability was 0.453.
With HARA the relative viability was 0.311.
HCC-78 gave a relative viability of 0.502.
In the case of LCLC-97TM1, the relative viability is reported as 0.218.
Work on NCI-H2023 yielded a relative viability of 0.634.
In the case of A-427, the relative viability is reported as 0.556.
NCI-H460 was tested, and the relative viability was 0.139.
NCI-H838 showed a relative viability of 0.182.
For NCI-H1734, the relative viability was 0.353.
NCI-H2405 was tested, and the relative viability was 0.532.
NCI-H1395 gave a relative viability of 0.651.
For NCI-H1915, the relative viability was 0.517.
HCC-827 was tested, and the relative viability was 0.32.
LXF-289 gave a relative viability of 0.6.
NCI-H2347 was tested, and the relative viability was 0.407.
NCI-H661 showed a relative viability of 0.45.
CAL-12T gave a relative viability of 0.488.
Cell Line NCI-H1651 has a relative viability of 0.49.
With EPLC-272H the relative viability was 0.366.
Work on NCI-H23 yielded a relative viability of 0.506.
For NCI-H1792, the relative viability was 0.773.
For NCI-H1355, the relative viability was 0.363.
NCI-H322M showed a relative viability of 0.494.
For NCI-H1437, the relative viability was 0.288.
NCI-H1755 showed a relative viability of 0.45.
NCI-H2085 showed a relative viability of 0.524.
For HCC-15, the relative viability was 0.802.
Work on NCI-H1793 yielded a relative viability of 0.292.
RERF-LC-KJ gave a relative viability of 1.18.
For EKVX, the relative viability was 0.41.

Same assay, conditions: first compound 2.53 µM
For NCI-H2342, the relative viability was 0.551.
PC-14 showed a relative viability of 0.444.
NCI-H1650 gave a relative viability of 0.335.
Cell Line NCI-H2009 has a relative viability of 0.174.
NCI-H1993 showed a relative viability of 0.609.
In the case of NCI-H520, the relative viability is reported as 0.226.
For PC-3 [JPC-3], the relative viability was 0.507.
With LCLC-103H the relative viability was 0.482.
In the case of NCI-H647, the relative viability is reported as 0.406.
NCI-H2228 gave a relative viability of 0.77.
For EMC-BAC-2, the relative viability was 0.502.
NCI-H2087 showed a relative viability of 0.203.
Cell Line HCC-366 has a relative viability of 0.375.
For NCI-H1666, the relative viability was 0.65.
In the case of NCI-H650, the relative viability is reported as 0.319.
LK-2 was tested, and the relative viability was 0.775.
Work on NCI-H2126 yielded a relative viability of 0.378.
NCI-H1648 gave a relative viability of 0.287.
In the case of SK-MES-1, the relative viability is reported as 0.375.
H3255 showed a relative viability of 0.299.
COR-L23 showed a relative viability of 0.34.
COR-L 105 was tested, and the relative viability was 0.434.
Cell Line LOU-NH91 has a relative viability of 0.53.
ChaGo-K-1 showed a relative viability of 0.928.
With NCI-H2170 the relative viability was 0.381.
In the case of NCI-H3122, the relative viability is reported as 0.198.
HOP-62 was tested, and the relative viability was 0.361.
HCC-44 gave a relative viability of 0.931.
Work on NCI-H522 yielded a relative viability of 1.09.
For LU99A, the relative viability was 0.427.
BEN was tested, and the relative viability was 0.503.
For HARA, the relative viability was 0.208.
For SW 900, the relative viability was 0.543.
HCC-78 showed a relative viability of 0.458.
In the case of NCI-H441, the relative viability is reported as 0.237.
In the case of LCLC-97TM1, the relative viability is reported as 0.236.
NCI-H2023 showed a relative viability of 0.338.
A-427 showed a relative viability of 0.578.
In the case of NCI-H460, the relative viability is reported as 0.181.
For NCI-H838, the relative viability was 0.247.
NCI-H1734 showed a relative viability of 0.192.
In the case of NCI-H2405, the relative viability is reported as 0.546.
In the case of NCI-H1395, the relative viability is reported as 0.626.
201T was tested, and the relative viability was 0.328.
Work on NCI-H1915 yielded a relative viability of 0.533.
Cell Line HCC-827 has a relative viability of 0.477.
With LXF-289 the relative viability was 0.656.
NCI-H2347 showed a relative viability of 0.553.
Work on NCI-H661 yielded a relative viability of 0.423.
With CAL-12T the relative viability was 0.445.
For NCI-H1651, the relative viability was 0.515.
For EPLC-272H, the relative viability was 0.36.
NCI-H23 gave a relative viability of 0.48.
For NCI-H1792, the relative viability was 0.639.
NCI-H1355 gave a relative viability of 0.386.
In the case of NCI-H322M, the relative viability is reported as 0.489.
With NCI-H1437 the relative viability was 0.275.
With NCI-H1755 the relative viability was 0.484.
NCI-H2085 showed a relative viability of 0.547.
In the case of HCC-15, the relative viability is reported as 0.712.
NCI-H1793 showed a relative viability of 0.38.
RERF-LC-KJ showed a relative viability of 1.17.
Work on EKVX yielded a relative viability of 0.433.

Same assay, conditions: first compound 8 µM
With NCI-H2342 the relative viability was 0.549.
PC-14 was tested, and the relative viability was 0.496.
Cell Line NCI-H1650 has a relative viability of 0.396.
NCI-H2009 showed a relative viability of 0.255.
With NCI-H1993 the relative viability was 0.65.
For NCI-H520, the relative viability was 0.25.
PC-3 [JPC-3] showed a relative viability of 0.487.
LCLC-103H was tested, and the relative viability was 0.459.
With NCI-H647 the relative viability was 0.421.
NCI-H2228 was tested, and the relative viability was 0.701.
Work on EMC-BAC-2 yielded a relative viability of 0.485.
NCI-H2087 was tested, and the relative viability was 0.269.
Work on HCC-366 yielded a relative viability of 0.396.
NCI-H1666 gave a relative viability of 0.656.
NCI-H650 was tested, and the relative viability was 0.348.
In the case of LK-2, the relative viability is reported as 0.622.
Cell Line NCI-H2126 has a relative viability of 0.371.
For NCI-H1648, the relative viability was 0.323.
SK-MES-1 showed a relative viability of 0.325.
H3255 was tested, and the relative viability was 0.316.
Cell Line COR-L23 has a relative viability of 0.304.
Work on COR-L 105 yielded a relative viability of 0.378.
LOU-NH91 was tested, and the relative viability was 0.611.
Cell Line ChaGo-K-1 has a relative viability of 0.95.
NCI-H2170 was tested, and the relative viability was 0.351.
In the case of NCI-H3122, the relative viability is reported as 0.197.
With HOP-62 the relative viability was 0.371.
In the case of HCC-44, the relative viability is reported as 0.91.
NCI-H522 gave a relative viability of 1.4.
LU99A gave a relative viability of 0.405.
In the case of BEN, the relative viability is reported as 0.445.
HARA was tested, and the relative viability was 0.26.
With SW 900 the relative viability was 0.473.
In the case of HCC-78, the relative viability is reported as 0.476.
Work on NCI-H441 yielded a relative viability of 0.216.
LCLC-97TM1 showed a relative viability of 0.252.
Cell Line NCI-H2023 has a relative viability of 0.329.
With A-427 the relative viability was 0.515.
Work on NCI-H460 yielded a relative viability of 0.111.
Cell Line NCI-H838 has a relative viability of 0.251.
NCI-H1734 showed a relative viability of 0.365.
NCI-H2405 was tested, and the relative viability was 0.507.
NCI-H1395 was tested, and the relative viability was 0.625.
201T showed a relative viability of 0.357.
For NCI-H1915, the relative viability was 0.525.
With HCC-827 the relative viability was 0.5.
Work on LXF-289 yielded a relative viability of 0.652.
NCI-H2347 was tested, and the relative viability was 0.404.
NCI-H661 gave a relative viability of 0.423.
In the case of CAL-12T, the relative viability is reported as 0.38.
NCI-H1651 gave a relative viability of 0.518.
EPLC-272H was tested, and the relative viability was 0.398.
Work on NCI-H23 yielded a relative viability of 0.446.
Work on NCI-H1792 yielded a relative viability of 0.643.
NCI-H1355 gave a relative viability of 0.392.
NCI-H322M showed a relative viability of 0.532.
NCI-H1437 gave a relative viability of 0.307.
In the case of NCI-H1755, the relative viability is reported as 0.498.
NCI-H2085 showed a relative viability of 0.481.
For HCC-15, the relative viability was 0.724.
NCI-H1793 gave a relative viability of 0.303.
With RERF-LC-KJ the relative viability was 1.07.
Cell Line EKVX has a relative viability of 0.371.
